# Assay results reported in publication PMC11062899, “De novo development of small cyclic peptides that are orally bioavailable” (Nature Chemical Biology, 2023).
# Where “and” joins values, the source holds several entries; their conditions need not be identical. Identical values can stand only once.
# Legend:
# porcine pepsin = biological target: T1, porcine pepsin (Sus scrofa, UniProt P00791); test: Peptide stability in simulated gastric fluid (SGF); assay type: in vitro ADME
# T1 construct: 0.32 g of porcine pepsin (Sigma-Aldrich, P7125) was dissolved under gentle agitation; purchased Sigma-Aldrich P7125
# T1 sequence (P00791 60-385): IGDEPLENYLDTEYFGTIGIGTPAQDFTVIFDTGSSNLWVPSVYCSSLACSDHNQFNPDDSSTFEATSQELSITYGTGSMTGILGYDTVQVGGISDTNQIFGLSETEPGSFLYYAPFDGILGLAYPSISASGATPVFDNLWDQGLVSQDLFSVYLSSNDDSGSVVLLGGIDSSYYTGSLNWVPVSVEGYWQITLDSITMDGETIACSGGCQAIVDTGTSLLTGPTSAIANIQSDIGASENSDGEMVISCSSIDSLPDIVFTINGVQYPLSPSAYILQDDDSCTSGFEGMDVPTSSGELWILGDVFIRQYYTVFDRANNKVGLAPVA
# How it was run: (§1)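 Peptide from a 1 mM DMSO stock was added to fluid pre-warmed at 37 °C. SGF was pH 1.2 NaCl with porcine pepsin (0.32 g per 100 ml), and SIF was pH 6.8 potassium phosphate with porcine pancreatin (1 g per 100 ml). Supernatant peptide was quantified by LC–MS, with residual expressed as T1/T0.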
# porcine pancreatin = test: Peptide stability in simulated intestinal fluid (SIF); assay type: in vitro ADME; conditions: after 8 h vs 0 h (TIC)
# How it was run: as §1
# [1] = as above; assay type: in vitro ADME, porcine; conditions: simulated gi fluid; 8 h, 37 °C, pH 6.8; read-out: Proteolytic stability: SIF (8 h) % remaining
# How it was run: as §1
# human α-thrombin = human α-thrombin (Homo sapiens, UniProt P00734); test: Protease inhibition, Ki for human α-thrombin (fluorogenic substrate Z-Gly-Gly-Arg-AMC); assay type: biochemical; conditions: replicates R1-R3
# How it was run: (§2)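 Inhibition was measured as AMC fluorescence from 50 μM substrate, monitored for 30 min at 25 °C, relative to a peptide-free control. Human and rat enzymes were present at 2 nM and 3 nM final, respectively, in 50 mM Tris-HCl pH 7.4, 150 mM NaCl, 10 mM MgCl2, 1 mM CaCl2. Ki derives from fitted IC50 via Cheng–Prusoff.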
# [2] = Metabolic stability in rat liver microsomes (RLMs); conditions: rat, microsomes
# [3] = Passive artificial membrane permeability (PAMPA)
# Method: The plate system consisted of a 96-well microwell plate (donor wells) and a 96-well insert containing a PVDF membrane coated with tri-layers of phospholipids (acceptor wells). Permeability was measured from the bottom plate (donor wells) to the top insert (acceptor wells). Cyclic peptide or reference compound solutions were prepared at a concentration of 50 μM in PBS buffer (pH 7.4) containing 5% DMSO, and 300 μl of the resulting solutions was placed into the donor wells of the PAMPA plate. Acceptor wells were prepared by adding 200 μl of PBS buffer (pH 7.4) containing 5% DMSO. The insert was stacked onto the donor plate, and the system was covered with a lid to avoid evaporation. […] Additionally, 3:2 dilutions of the 50 μM cyclic peptide stocks were prepared in PBS buffer (pH 7.4) containing 5% DMSO to yield a sample corresponding to the theoretical equilibrium between donor and acceptor wells. The samples were run on the LC–MS to measure the cyclic peptide concentration representing maximum permeability. Permeability percent was calculated using equation (4) below.4 Permeability%=PeptideAcceptor/PeptideEquilibrated×100 where [PeptideAcceptor] represents the AUC measured on the LC–MS for the acceptor wells, and [PeptideEquilibrated] represents the AUC measured for the samples diluted to the theoretical equilibrium. Detection limit for the assay was typically at 1% permeability.
# Papp values were calculated using equation (5).5 Papp=VD×VA/VD+VA×A×t×−ln1−PeptideAcceptor/PeptideEquilibrated where VD and VA are the volumes of donor and acceptor wells, respectively; A is the area of the membrane; and t is the incubation time.
# rat α-thrombin = biological target: T2, rat α-thrombin (Rattus norvegicus, UniProt P18292); test: Protease inhibition, Ki for rat α-thrombin (fluorogenic substrate Z-Gly-Gly-Arg-AMC); assay type: biochemical; conditions: replicates R1-R3
# T2 construct: rat α-thrombin (Molecular Innovations) were used at final concentrations of 2 nM and 3 nM; purchased Molecular Innovations
# How it was run: as §2
# [4] = peptide 1.33E+02 uM, slope of proteolytic substrate cleavage over time
compound,measurement,setting,value
O=C1CCSCc2cccc(n2)CSCCNC(=O)C2CN(C(=O)c3ccc(Cl)s3)CCN2C(=O)[C@H](CO)N1 (stereo partly shown) [compound 24],"SGF stability, Residual peptide Average","porcine pepsin; after 8 h vs 0 h (TIC), average of R1-R3",99.25
same,"SGF stability, Residual peptide","porcine pepsin; after 8 h vs 0 h (TIC), single replicates R1-R3",102.40 and 99.33 and 96.01
same,remaining at 8 h,"porcine pepsin; simulated gi fluid, 8 h, 37 °C, pH 1.2, read-out: Proteolytic stability: SGF (8 h) % remaining",99 ± 3%
same,"SIF stability, Residual peptide Average",porcine pancreatin; average of R1-R3,94.64
same,"SIF stability, Residual peptide",porcine pancreatin; single replicates R1-R3,97.98 and 88.07 and 97.88
same,remaining at 8 h,[1],95 ± 6%
same,"Human alpha thrombin inhibition, slope normalized to DMSO",human α-thrombin; peptide 1.02E-03 uM,95.9 and 98.2 and 97.4
same,"Human alpha thrombin inhibition, slope normalized to DMSO",human α-thrombin; peptide 1.04E+00 uM,81.9 and 85.8 and 83.3
same,"Human alpha thrombin inhibition, slope normalized to DMSO",human α-thrombin; peptide 1.27E-04 uM,100.0
same,"Human alpha thrombin inhibition, slope normalized to DMSO",human α-thrombin; peptide 1.30E-01 uM,95.8 and 97.8
same,"Human alpha thrombin inhibition, slope normalized to DMSO",human α-thrombin; [4],5.8 and 7.8 and 9.3
same,"Human alpha thrombin inhibition, slope normalized to DMSO",human α-thrombin; peptide 1.63E-02 uM,98.1 and 95.1
same,"Human alpha thrombin inhibition, slope normalized to DMSO",human α-thrombin; peptide 1.67E+01 uM,24.2 and 34.4 and 34.5
same,"Human alpha thrombin inhibition, slope normalized to DMSO",human α-thrombin; peptide 2.03E-03 uM,107.0
same,"Human alpha thrombin inhibition, slope normalized to DMSO",human α-thrombin; peptide 2.08E+00 uM,75.9 and 67.7 and 77.5
same,"Human alpha thrombin inhibition, slope normalized to DMSO",human α-thrombin; peptide 2.54E-04 uM,106.8 and 94.5 and 91.2
same,"Human alpha thrombin inhibition, slope normalized to DMSO",human α-thrombin; peptide 2.60E-01 uM,93.5 and 89.6 and 97.8
same,"Human alpha thrombin inhibition, slope normalized to DMSO",human α-thrombin; peptide 3.18E-05 uM,101.5 and 97.9 and 106.2
same,"Human alpha thrombin inhibition, slope normalized to DMSO",human α-thrombin; peptide 3.26E-02 uM,103.3 and 97.7 and 104.2
same,"Human alpha thrombin inhibition, slope normalized to DMSO",human α-thrombin; peptide 3.33E+01 uM,16.8 and 22.5 and 20.8
same,"Human alpha thrombin inhibition, slope normalized to DMSO",human α-thrombin; peptide 4.07E-03 uM,97.2 and 91.1
same,"Human alpha thrombin inhibition, slope normalized to DMSO",human α-thrombin; peptide 4.17E+00 uM,54.3 and 66.2 and 66.1
same,"Human alpha thrombin inhibition, slope normalized to DMSO",human α-thrombin; peptide 5.09E-04 uM,94.9 and 97.9
same,"Human alpha thrombin inhibition, slope normalized to DMSO",human α-thrombin; peptide 5.21E-01 uM,90.1 and 82.7 and 89.7
same,"Human alpha thrombin inhibition, slope normalized to DMSO",human α-thrombin; peptide 6.36E-05 uM,101.8 and 98.6 and 104.2
same,"Human alpha thrombin inhibition, slope normalized to DMSO",human α-thrombin; peptide 6.51E-02 uM,97.4 and 97.6
same,"Human alpha thrombin inhibition, slope normalized to DMSO",human α-thrombin; peptide 6.67E+01 uM,12.2 and 13.3 and 13.7
same,"Human alpha thrombin inhibition, slope normalized to DMSO",human α-thrombin; peptide 8.14E-03 uM,97.0 and 98.1 and 103.6
same,"Human alpha thrombin inhibition, slope normalized to DMSO",human α-thrombin; peptide 8.33E+00 uM,51.4 and 50.3 and 44.5
same,microsomal CLint,"[2]; CL (ul/min/mg protein) R1, RLM CL, replicate R1",75.7 µL/min/mg
same,microsomal CLint,"[2]; CL (ul/min/mg protein) R2, RLM CL, replicate R2",76.9 µL/min/mg
same,microsomal CLint,"[2]; CL (ul/min/mg protein) R3, RLM CL, replicate R3",68.3 µL/min/mg
same,half-life,"[2]; Half Life (min) R1, RLM metabolic stability, replicate R1, 0-60 min",18.3 min
same,half-life,"[2]; Half Life (min) R2, RLM metabolic stability, replicate R2, 0-60 min",18 min
same,half-life,"[2]; Half Life (min) R3, RLM metabolic stability, replicate R3, 0-60 min",20.3 min
same,half-life,"[2]; Metabolic stability: Half life T1/2 (min), RLMs, mean and SD, three measurements",18.9 ± 1 min
same,microsomal CLint,"[2]; Metabolic stability: RLM CL (ul/min/mg), RLMs, mean and SD, three measurements",74 ± 4 µL/min/mg
same,PAMPA permeability: % permeability,"[3]; 50 μM, 12–18 h, acceptor concentration relative to equilibrium",2.0 ± 1.7%
same,Papp at 50 μM,"[3]; PAMPA, pH 7.4",0.049 ×10⁻⁶ cm/s
same,Permeability% Average,"[3]; PAMPA, average of R1-R3",2.0%
same,Permeability% R1,"[3]; PAMPA, replicate R1, TIC of top well sample relative to sample at theoretical equilibrium",0.0459%
same,Permeability% R3,"[3]; PAMPA, replicate R3, TIC of top well sample relative to sample at theoretical equilibrium",3.39%
same,"Rat alpha thrombin inhibition, slope normalized to DMSO",rat α-thrombin; [4],3.2 and 2.1 and 2.4
same,"Rat alpha thrombin inhibition, slope normalized to DMSO",rat α-thrombin; peptide 1.67E+01 uM,12.6 and 11.9 and 11.7
same,"Rat alpha thrombin inhibition, slope normalized to DMSO",rat α-thrombin; peptide 2.08E+00 uM,49.1 and 48.5 and 49.4
same,"Rat alpha thrombin inhibition, slope normalized to DMSO",rat α-thrombin; peptide 3.33E+01 uM,7.2 and 6.5 and 6.2
same,"Rat alpha thrombin inhibition, slope normalized to DMSO",rat α-thrombin; peptide 4.17E+00 uM,33.5 and 33.2 and 33.1
same,"Rat alpha thrombin inhibition, slope normalized to DMSO",rat α-thrombin; peptide 6.67E+01 uM,4.2 and 3.4 and 3.2
same,"Rat alpha thrombin inhibition, slope normalized to DMSO",rat α-thrombin; peptide 8.33E+00 uM,18.9 and 18.7 and 17.7
